Results published in publication PMC9227096, “Design, Synthesis, and In Vitro, In Silico and In Cellulo Evaluation of New Pyrimidine and Pyridine Amide and Carbamate Derivatives as Multi-Functional Cholinesterase Inhibitors” (Pharmaceuticals, 2022).
Like-named read-outs stand apart in the source and are kept apart here.

Target: T1, equine BChE (eqBChE) (Equus caballus, UniProt P81908)
T1 construct: purchased Sigma-Aldrich (Milan, Italy)
Assay: Reversibility of inhibition vs. eqBChE (ultrafiltration and washing)
Format: biochemical
Conditions: for inhibition at 5.4 µM: compound 18 5.4 µM, eqBChE 1.25 U
Experimental: Moreover, it was evaluated whether the inhibition mechanism of carbamate 18 towards eqBChE is reversible, irreversible or pseudo-irreversible. For this purpose, the percentages of inhibition were determined both after one hour of the incubation of compound 18 (5.4 µM) with eqBChE (1.25 U), both following the removal of the inhibitor and the washing of the enzyme, carried out through ultrafiltration devices for the concentration of biological samples [35, 36]. To validate the method, the same study was performed with carbaryl (54 µM), a known carbamoylating cholinesterase inhibitor.
After the incubation phase, the solution containing the inhibitor not bound to the enzyme was removed by centrifugation, retaining eqBChE on the membrane of the ultrafiltration devices. Then the enzyme was washed with phosphate buffer, to remove the bound inhibitor and to restore the enzyme activity.
Three solutions were prepared in 0.1 M phosphate buffer (pH = 7.4), containing eqBChE (0.50 UmL^−1), DTNB (0.3 mM) and acetylthiocholine (10 mM), respectively. A solution of compound 18 in DMSO (2.7 mM) was prepared. Then six Vivaspin® were used: • three were prepared with 2.5 mL of eqBChE solution (0.50 UmL^−1) and 5 µL of inhibitor solution; • three were prepared with 2.5 mL of eqBChE solution (0.50 UmL^−1) and 5 µL of DMSO.
The Vivaspin® thus prepared were incubated for 1 h at 25 °C. After this time the percentage of inhibition was determined following the Ellman method. The blank was recorded by taking 500 µL from the Vivaspin® and diluting them in the cuvette in 2.5 mL of DTNB solution (0.3 mM). The reaction was activated by adding 30 μL of acetylthiocholine solution (10 mM), so as to obtain a final concentration of 100 µM in the cuvette. The absorbance variation was measured between 0.5 and 1.5 min at 412 nm, repeating the measurement for each of the six Vivaspin®.
After this procedure the first centrifugation of the Vivaspin® was carried out for 60 min at 4000 rpm and subsequently the solutions that crossed the membrane and settled in the filtrate tube were removed. In this way the solutions present in the concentrator body were concentrated up to 100 µL. To these solutions 1 mL of 0.1 M phosphate buffer (pH = 7.4) was added and the second centrifugation was carried out for 30 min at 4000 rpm. The solutions present in the concentrator body were concentrated up to 200 µL. The second washing was carried out, adding 1 mL of buffer and centrifuging for 30 min at 4000 rpm. The solutions present in the concentrator body were concentrated up to 250 µL. A third wash was carried out adding 1 mL of buffer and centrifuging for 50 min at 4000 rpm. The solutions present in the concentrator body were concentrated up to 150 µL. At this point, to recover the concentrated solution, the filtrate tube was removed, the concentrator body was turned upside down and inserted inside the concentrate recovery cap. The Vivaspin® was centrifuged for 10 min at 4000 rpm. After this time the recovered solution was taken up with 3 mL of DTNB solution (0.3 mM) and transferred into the cuvette: blank was recorded. The reaction was activated when 30 µL of substrate solution (10 mM) were added so as to have a final concentration of 100 µM in the cuvette. The absorbance variation between 0.5 and 1.5 min was measured at 412 nm, repeating the measurement for each of the recovered solutions.
As a positive control carbaryl was used, for which the same procedure was followed, using a 27 mM carbaryl stock solution in DMSO.

T1 sequence (P81908 whole entry): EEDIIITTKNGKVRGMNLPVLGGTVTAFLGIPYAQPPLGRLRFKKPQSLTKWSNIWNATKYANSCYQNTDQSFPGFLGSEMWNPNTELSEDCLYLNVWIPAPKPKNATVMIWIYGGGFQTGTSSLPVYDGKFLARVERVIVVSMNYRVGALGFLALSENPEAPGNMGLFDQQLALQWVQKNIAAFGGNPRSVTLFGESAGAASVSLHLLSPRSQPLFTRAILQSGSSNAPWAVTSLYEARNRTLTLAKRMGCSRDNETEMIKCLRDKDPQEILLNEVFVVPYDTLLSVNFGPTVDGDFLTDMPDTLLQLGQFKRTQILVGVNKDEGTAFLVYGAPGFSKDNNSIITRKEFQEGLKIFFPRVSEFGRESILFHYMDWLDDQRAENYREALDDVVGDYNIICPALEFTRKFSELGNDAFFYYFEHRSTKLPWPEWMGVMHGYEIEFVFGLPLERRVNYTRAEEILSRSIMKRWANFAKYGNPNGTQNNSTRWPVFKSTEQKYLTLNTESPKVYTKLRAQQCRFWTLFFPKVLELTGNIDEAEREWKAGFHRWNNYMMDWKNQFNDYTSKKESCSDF

O=C(NCCCCCCNc1ccccn1)Oc1ccccc1 [Compound 18, Phenyl (6-(pyridin-2-ylamino)hexyl)carbamate]
inhibition at 5.4 µM (after ultrafiltration and washing with phosphate buffer, read-out: percentage of inhibition of eqBChE after removal of inhibitor and washing of the enzyme): 56.7% | inhibition at 5.4 µM (before washing, read-out: percentage of inhibition of eqBChE after one hour of incubation): 89.7% | inhibition mechanism towards eqBChE (reversible, irreversible or pseudo-irreversible) (from restoration of enzymatic activity after washing): pseudo-irreversible
